{"source": "paper PMC6011181", "about": "“The Mechanism of Acetyl Transfer Catalyzed by Mycobacterium tuberculosis GlmU” (Biochemistry, 2018)", "key": {"GlmU [1]": {"target": "T1, GlmU (Mycobacterium tuberculosis, UniProt P9WMN3)", "T1 sequence (P9WMN3 whole entry, looked up)": "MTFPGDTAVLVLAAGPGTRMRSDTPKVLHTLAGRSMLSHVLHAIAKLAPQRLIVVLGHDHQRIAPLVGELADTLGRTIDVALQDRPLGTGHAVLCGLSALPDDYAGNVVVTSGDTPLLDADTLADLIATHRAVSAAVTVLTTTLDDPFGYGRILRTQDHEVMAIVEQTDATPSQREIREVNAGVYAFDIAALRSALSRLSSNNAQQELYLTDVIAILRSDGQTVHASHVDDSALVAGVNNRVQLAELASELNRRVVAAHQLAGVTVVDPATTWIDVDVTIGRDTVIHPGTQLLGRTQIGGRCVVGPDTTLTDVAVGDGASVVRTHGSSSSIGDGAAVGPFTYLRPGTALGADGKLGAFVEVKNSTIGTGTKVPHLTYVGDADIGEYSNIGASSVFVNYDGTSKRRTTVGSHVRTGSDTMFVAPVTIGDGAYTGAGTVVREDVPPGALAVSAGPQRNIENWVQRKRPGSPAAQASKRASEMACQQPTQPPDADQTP", "assay": "acetyltransferase inhibition assay", "format": "biochemical"}, "GlmU [2]": {"target": "T1, GlmU", "assay": "biochemical", "format": "binding"}, "GlmU [3]": {"target": "T1, GlmU", "assay": "acetyltransferase dead-end inhibition, initial velocities versus GlcN-1P", "format": "biochemical", "conditions": "read-out: Kis"}, "His374": {"target": "His374 (UniProt position 374, GTKVPHLTYVG)", "assay": "kinetics", "conditions": "30 °C (stated for the acetyltransferase assay; not restated for the pH-rate studies); constant-ionic-strength three-component buffer (value not stated); 10 mM MgCl2; Vmax conditions (enzyme saturated with Ac-CoA and GlcN-1P), Mg2+ present"}, "[4]": {"test_system": "CC(=O)SCCNC(=O)CCNC(=O)[C@H](O)C(C)(C)COP(=O)(O)OP(=O)(O)OC[C@H]1O[C@@H](n2cnc3c(N)ncnc32)[C@H](O)[C@@H]1OP(=O)(O)O", "assay": "purified protein", "conditions": "co-substrate GlcN-1P saturating, pH 7.5, 30 °C, 10 mM MgCl2"}, "[5]": {"test_system": "O=c1ccn([C@@H]2O[C@H](COP(=O)(O)OP(=O)(O)OP(=O)(O)O)[C@@H](O)[C@H]2O)c(=O)[nH]1", "assay": "purified protein", "conditions": "co-substrate GlcNAc-1P saturating, pH 7.5, 30 °C, 10 mM MgCl2, uridylyltransferase site"}, "[6]": {"test_system": "N[C@H]1[C@@H](OP(=O)(O)OP(=O)(O)OC[C@H]2O[C@@H](n3ccc(=O)[nH]c3=O)[C@H](O)[C@@H]2O)O[C@H](CO)[C@@H](O)[C@@H]1O", "assay": "purified protein", "conditions": "co-substrate Ac-CoA saturating, pH 7.5, 30 °C, 10 mM MgCl2, acetyltransferase site"}, "[7]": {"test_system": "CC(=O)N[C@H]1[C@@H](OP(=O)(O)O)O[C@H](CO)[C@@H](O)[C@@H]1O", "assay": "purified protein", "conditions": "co-substrate UTP saturating, pH 7.5, 30 °C, 10 mM MgCl2, uridylyltransferase site"}, "[8]": {"test_system": "N[C@H]1[C@@H](OP(=O)(O)O)O[C@H](CO)[C@@H](O)[C@@H]1O", "assay": "purified protein", "conditions": "co-substrate Ac-CoA saturating, pH 7.5, 30 °C, 10 mM MgCl2"}, "GlmU [9]": {"target": "T1, GlmU", "format": "biochemical"}, "GlmU [10]": {"target": "T1, GlmU", "assay": "acetyltransferase dead-end inhibition, initial velocities versus Ac-CoA", "format": "biochemical", "conditions": "read-out: Kis"}, "GlmU [11]": {"target": "T1, GlmU", "assay": "acetyltransferase DTP absorbance assay (CoA-SH release)", "format": "biochemical"}, "GlmU [12]": {"target": "T1, GlmU", "assay": "biochemical", "conditions": "read-out: Kis"}, "[13]": {"conditions": "Km concentrations of Ac-CoA and GlcN-1P, pH 7.5, 30 °C, 10 mM MgCl2, acetyltransferase site, read-out: no inhibition at ≤10 mM"}}, "note": "Like-named read-outs stand apart in the source and are kept apart here."}
{"compound": "C/C=C/C(=O)SCCNC(=O)CCNC(=O)[C@H](O)C(C)(C)COP(=O)(O)OP(=O)(O)OC[C@H]1O[C@@H](n2cnc3c(N)ncnc32)[C@H](O)[C@@H]1OP(=O)(O)O", "note": "[Cro-CoA]", "values": [{"measurement": "IC50", "setting": "GlmU [1]; read-out: IC50 (mM) ^b, ^c", "value": "1 ± 0.15", "unit": "mM"}]}
{"compound": "CC(=O)N[C@@H]1C(O)O[C@H](CO)[C@@H](O)[C@@H]1O", "note": "(stereo partly shown) [N-acetyl-mannosamine]", "values": [{"measurement": "IC50", "setting": "GlmU [1]; [13]", "value": "> 10", "unit": "mM"}]}
{"compound": "N[C@H]1C(O)O[C@H](COP(=O)(O)O)[C@@H](O)[C@@H]1O", "note": "(stereo partly shown) [GlcN-6P]", "values": [{"measurement": "IC50", "setting": "GlmU [1]; Km concentrations of Ac-CoA and GlcN-1P, pH 7.5, 30 °C, 10 mM MgCl2, read-out: IC50 (mM) ^b, ^c", "value": "10 ± 0.89", "unit": "mM"}]}
{"compound": "CC(C)C(=O)SCCNC(=O)CCNC(=O)[C@H](O)C(C)(C)COP(=O)(O)OP(=O)(O)OC[C@H]1O[C@@H](n2cnc3c(N)ncnc32)[C@H](O)[C@@H]1OP(=O)(O)O", "note": "[IsoBu-CoA]", "values": [{"measurement": "IC50", "setting": "GlmU [1]; read-out: IC50 (mM) ^b, ^c", "value": "2 ± 0.21", "unit": "mM"}]}
{"compound": "CC(=O)N[C@H]1C(O)O[C@H](CO)[C@H](O)[C@@H]1O", "note": "(stereo partly shown) [N-acetyl-galactosamine]", "values": [{"measurement": "IC50", "setting": "GlmU [1]; [13]", "value": "> 10", "unit": "mM"}]}
{"compound": "O=P(O)(O)OC[C@H]1OC(O)[C@@H](O)[C@@H](O)[C@@H]1O", "note": "(stereo partly shown) [mannose 6-phosphate]", "values": [{"measurement": "IC50", "setting": "GlmU [1]; [13]", "value": "> 10", "unit": "mM"}]}
{"compound": "CCC(=O)SCCNC(=O)CCNC(=O)[C@H](O)C(C)(C)COP(=O)(O)OP(=O)(O)OC[C@H]1O[C@@H](n2cnc3c(N)ncnc32)[C@H](O)[C@@H]1OP(=O)(O)O", "note": "[Pro-CoA]", "values": [{"measurement": "Kd", "setting": "GlmU [2]; read-out: Kd (μM) ^b", "value": "500 ± 100", "unit": "µM"}]}
{"compound": "O=P(O)(O)O[C@H]1O[C@H](CO)[C@@H](O)[C@H](O)[C@H]1O", "note": "[Glc-1P]", "values": [{"measurement": "IC50", "setting": "GlmU [1]; read-out: IC50 (mM) ^b, ^c", "value": "5 ± 0.65", "unit": "mM"}, {"measurement": "Kd", "setting": "GlmU [2]; read-out: Kd", "value": "1700 ± 400", "unit": "µM"}, {"measurement": "Ki", "setting": "GlmU [3]", "value": "4100 ± 600", "unit": "µM"}]}
{"compound": "Bifunctional N-acetyltransferase/uridylyltransferase GlmU (Mycobacterium tuberculosis H37Rv)", "values": [{"measurement": "pKa", "setting": "His374", "value": "6.7 ± 0.1"}]}
{"compound": "GlmU (Mycobacterium tuberculosis H37Rv)", "values": [{"measurement": "Km", "setting": "[4]", "value": "250 ± 8", "unit": "µM"}, {"measurement": "Km", "setting": "[5]", "value": "8 ± 0.8", "unit": "µM"}, {"measurement": "kcat", "setting": "[5]", "value": "120 ± 3", "unit": "s⁻¹"}, {"measurement": "kcat/Km", "setting": "[5]", "value": "1.5e+07 ± 3.8e+06", "unit": "M⁻¹ s⁻¹"}, {"measurement": "Km", "setting": "[6]", "value": "9700 ± 600", "unit": "µM"}, {"measurement": "kcat", "setting": "[6]", "value": "2.04 ± 0.06", "unit": "s⁻¹"}, {"measurement": "kcat/Km", "setting": "[6]", "value": "220 ± 170", "unit": "M⁻¹ s⁻¹"}, {"measurement": "Km", "setting": "[7]", "value": "30 ± 5", "unit": "µM"}, {"measurement": "Km", "setting": "[8]", "value": "290 ± 31", "unit": "µM"}]}
{"compound": "O=P(O)(O)O[C@H]1O[C@H](CO)[C@@H](O)[C@H](O)[C@@H]1O", "note": "[mannose 1-phosphate]", "values": [{"measurement": "IC50", "setting": "GlmU [1]; read-out: no inhibition at ≤10 mM", "value": "> 10", "unit": "mM"}]}
{"compound": "N[C@H]1[C@@H](OP(=O)(O)O)O[C@H](CO)[C@@H](O)[C@@H]1O", "note": "[GlcN-1P]", "values": [{"measurement": "Kd", "setting": "GlmU [9]", "value": "in the presence of high concentrations of the second substrate, the Kd values for the complex"}]}
{"compound": "CC(=O)SCCNC(=O)CCNC(=O)[C@H](O)C(C)(C)COP(=O)(O)OP(=O)(O)OC[C@H]1O[C@@H](n2cnc3c(N)ncnc32)[C@H](O)[C@@H]1OP(=O)(O)O", "note": "[Ac-CoA]", "values": [{"measurement": "Kd", "setting": "GlmU [2]; read-out: Kd (μM) ^b", "value": "250 ± 25", "unit": "µM"}]}
{"compound": "CCCC(=O)SCCNC(=O)CCNC(=O)[C@H](O)C(C)(C)COP(=O)(O)OP(=O)(O)OC[C@H]1O[C@@H](n2cnc3c(N)ncnc32)[C@H](O)[C@@H]1OP(=O)(O)O", "note": "[Bu-CoA]", "values": [{"measurement": "IC50", "setting": "GlmU [1]; read-out: IC50 (mM) ^b, ^c", "value": "1 ± 0.03", "unit": "mM"}, {"measurement": "Kd", "setting": "GlmU [2]; read-out: Kd (mM) ^c", "value": "3800 ± 800", "unit": "µM"}, {"measurement": "Ki", "setting": "GlmU [10]", "value": "350 ± 30", "unit": "µM"}]}
{"compound": "CC(C)(COP(=O)(O)OP(=O)(O)OC[C@H]1O[C@@H](n2cnc3c(N)ncnc32)[C@H](O)[C@@H]1OP(=O)(O)O)[C@@H](O)C(=O)NCCC(=O)NCCS", "note": "[CoA-SH]", "values": [{"measurement": "Kd", "setting": "GlmU [2]; read-out: Kd (mM) ^c", "value": "700 ± 130", "unit": "µM"}, {"measurement": "IC50", "setting": "GlmU [11]", "value": "0.3 ± 0.01", "unit": "mM"}, {"measurement": "Ki", "setting": "GlmU [12]", "value": "150 ± 15", "unit": "µM"}]}
{"compound": "CC(C)(COP(=O)(O)OP(=O)(O)OC[C@H]1O[C@@H](n2cnc3c(N)ncnc32)[C@H](O)[C@@H]1OP(=O)(O)O)[C@@H](O)C(=O)NCCC(=O)NCCSC(=O)CC(=O)O", "note": "[Mlo-CoA]", "values": [{"measurement": "IC50", "setting": "GlmU [1]; read-out: IC50 (mM) ^b, ^c", "value": "2 ± 0.59", "unit": "mM"}]}
{"compound": "O=P(O)(O)OC[C@H]1OC(O)[C@H](O)[C@@H](O)[C@@H]1O", "note": "(stereo partly shown) [glucose 6-phosphate]", "values": [{"measurement": "IC50", "setting": "GlmU [1]; [13]", "value": "> 10", "unit": "mM"}]}
